ChEMBL document CHEMBL1150159, “Semisynthetic analogues of the microtubule-stabilizing agent discodermolide: preparation and biological activity” (J Nat Prod, 2002)

Legend:
[1] = tested on: A549; assay: Cytotoxicity against human A549 cells; type: functional, cell-based
[2] = tested on: P388; assay: Cytotoxicity against mouse P388 cells; type: functional, cell-based

| Structure (SMILES) | IC50 [1] | IC50 [2] |
| --- | --- | --- |
| CCCC[C@H](C)[C@H](OC(N)=O)[C@@H](C)[C@H](O)[C@@H](C)C/C(C)=C\[C@H](C)[C@@H](O)[C@@H](C)CCCC[C@@H]1OC(=O)[C@H](C)[C@@H](O)[C@H]1C | 377 nM | 309 nM |
| C=C/C=C\[C@H](C)[C@H](O)[C@@H](C)[C@H](O)[C@@H](C)C/C(C)=C\[C@H](C)[C@H]1OC(=O)C=C[C@@H]1C | > 12800 nM | > 12800 nM |
| C=C/C=C\[C@H](C)[C@H](OC(N)=O)[C@@H](C)[C@H](OC(C)=O)[C@@H](C)C/C(C)=C\[C@H](C)[C@@H](OC(C)=O)[C@@H](C)/C=C\[C@@H](O)C[C@@H]1OC(=O)C(C)=C[C@H]1C | > 7590 nM | > 7590 nM |
| C=C/C=C\[C@H](C)[C@H](OC(N)=O)[C@@H](C)[C@H](O)[C@@H](C)C/C(C)=C\[C@H](C)[C@H]1OC(=O)C=C[C@@H]1C | 6770 nM | 3690 nM |
| C=C/C=C\[C@H](C)[C@H](OC(N)=O)[C@@H](C)[C@H](OC(C)=O)[C@@H](C)C/C(C)=C\[C@H](C)[C@@H](O)[C@@H](C)/C=C\[C@@H](O)C[C@@H]1OC(=O)C(C)=C[C@H]1C | > 8100 nM | > 8100 nM |
| C=C/C=C\[C@H](C)[C@H](OC(N)=O)[C@@H](C)[C@H](O)[C@@H](C)C/C(C)=C\[C@H](C)[C@@H](O)[C@@H](C)/C=C\[C@@H](O)C[C@@H]1OC(=O)C(C)=C[C@H]1C | 21.7 nM | 33.6 nM |
| CCCC[C@H](C)[C@H](OC(N)=O)[C@@H](C)[C@H](O)[C@@H](C)C/C(C)=C\[C@H](C)[C@@H](O)[C@@H](C)/C=C\[C@@H](O)C[C@@H]1OC(=O)[C@H](C)[C@@H](O)[C@H]1C | 8.4 nM | 10 nM |
| CCCC[C@H](C)[C@H](OC(N)=O)[C@@H](C)[C@H](OC(C)=O)[C@@H](C)C/C(C)=C\[C@H](C)[C@@H](OC(C)=O)[C@@H](C)CCCC[C@@H]1OC(=O)[C@H](C)[C@@H](OC(C)=O)[C@H]1C | – | > 7050 nM |
| C=C/C=C\[C@H](C)[C@H](OC(N)=O)[C@@H](C)[C@H](O)[C@@H](C)C/C(C)=C\[C@H](C)[C@@H](OC(C)=O)[C@@H](C)/C=C\[C@@H](O)C[C@@H]1OC(=O)C(C)=C[C@H]1C | 3130 nM | 519 nM |
| CCCC[C@H](C)[C@H](OC(N)=O)[C@@H](C)[C@H](O)[C@@H](C)CC(C)C[C@H](C)[C@@H](O)[C@@H](C)CC[C@@H](O)C[C@@H]1OC(=O)[C@H](C)[C@@H](O)[C@H]1C (stereo partly drawn) | > 8290 nM | > 8290 nM |
| CCCC[C@H](C)[C@H](OC(N)=O)[C@@H](C)[C@H](O)[C@@H](C)C/C(C)=C\[C@H](C)[C@@H](O)[C@@H](C)CC[C@@H](O)C[C@@H]1OC(=O)[C@H](C)[C@@H](O)[C@H]1C | 67.7 nM | 33.8 nM |
| C=C/C=C\[C@H](C)[C@H](OC(N)=O)[C@@H](C)[C@H](OC(C)=O)[C@@H](C)C/C(C)=C\[C@H](C)[C@@H](OC(C)=O)[C@@H](C)/C=C\[C@H](C[C@@H]1OC(=O)C(C)=C[C@H]1C)OC(C)=O | > 7130 nM | 7080 nM |
